Source: patent US20240166660A1, “KRAS G12C INHIBITORS” (BeiGene Switzerland GmbH, priority 2021, published 2024)

Target: KRAS (aa 1-169) G12C, C51S, C80L, C118S (Homo sapiens (Human), UniProt P01116, C118S/C51S/C80L/G12C)
Assay: Biochemical functional assay: SOS1-mediated nucleotide exchange of GDP-loaded KRAS G12C, binding to GST-cRaf RBD, FRET readout
Settings: 3 hrs pre-incubation with compound at 24° C., SOS1, GTPyS, inhibition of nucleotide exchange
Outline: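 GDP-loaded His-tagged KRAS construct preincubated with compound 3 h at 24° C in 25 mM HEPES pH7.5, 10 mM MgCl2, 0.01% Triton X-100; SOS1 (aa 564-1049), GTPγS and GST-cRaf RBD added for 3 h, then anti-His Tb cryptate/anti-GST XL665 for 3 h. HTRF 665/620 ratio; IC50 by four-parameter logistic fit.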

KRAS (aa 1-169) G12C, C51S, C80L, C118S, sequence (P01116 other isoform, or with tags, fused parts or gaps G12C/C51S/C80L/C118S): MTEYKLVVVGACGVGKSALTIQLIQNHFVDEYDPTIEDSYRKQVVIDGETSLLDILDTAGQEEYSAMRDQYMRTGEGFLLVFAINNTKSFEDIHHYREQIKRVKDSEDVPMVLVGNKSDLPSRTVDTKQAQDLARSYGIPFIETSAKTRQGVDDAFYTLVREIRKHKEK

`C=C(F)C(=O)N1CCN(c2nc(OC[C@@H]3CCCN3C)nc3cc(-c4c(Cl)c(C)cc5[nH]ncc45)c4c(c23)OCCC4)C[C@@H]1CC#N` [Compound B11, 2-((2S)-4-(5-(5-chloro-6-methyl-1H-indazol-4-yl)-8-(((S)-1-methylpyrrolidin-2-yl)methoxy)-3,4-dihydro-2H-pyrano[2,3-f]quinazolin-10-yl)-1-(2-fluoroacryloyl)piperazin-2-yl)acetonitrile] showed an IC50 of 7.81 nM.

`C=CC(=O)N1CCN(c2ncnc3cc(-c4c(Cl)c(C)cc5[nH]ncc45)c4c(c23)OCCC4)C[C@@H]1CC#N` [Compound A20, 2-((2S)-1-acryloyl-4-(5-(5-chloro-6-methyl-1H-indazol-4-yl)-3,4-dihydro-2H-pyrano[2,3-f]quinazolin-10-yl)piperazin-2-yl)acetonitrile] showed an IC50 of 14.9 nM.

In the case of `C=C(F)C(=O)N1CCN(c2nc(N3CC(N(C)C)C3)nc3cc(-c4cccc5cccc(Cl)c45)c4c(c23)OCCC4)C[C@@H]1CC#N` (single isomer, unassigned) [Compound B102], the IC50 is reported as 354 nM.

`C=C(F)C(=O)N1CCN(c2nc(OC[C@@H]3CCCN3C)nc3cc(-c4ccc(C)cc4C(F)(F)F)c4ccoc4c23)C[C@@H]1CC#N` [Compound B77, 2-((S)-1-(2-fluoroacryloyl)-4-(4-(4-methyl-2-(trifluoromethyl)phenyl)-7-(((S)-1-methylpyrrolidin-2-yl)methoxy)furo[2,3-f]quinazolin-9-yl)piperazin-2-yl)acetonitrile] showed an IC50 of 535 nM.

Compound `C=CC(=O)N1CCN(c2nc(N3CC(CN(C)C)C3)nc3cc(-c4cccc5cccc(Cl)c45)c4c(c23)OCCC4)CC1` [Compound B26, 1-(4-(5-(8-chloronaphthalen-1-yl)-8-(3-((dimethylamino)methyl)azetidin-1-yl)-3,4-dihydro-2H-pyrano[2,3-f]quinazolin-10-yl)piperazin-1-yl)prop-2-en-1-one] has an IC50 of 239 nM.

In the case of `C=C(F)C(=O)N1CCN(c2nc(OCC3C[C@@H](OC)CN3C)nc3cc(-c4cccc5cccc(Cl)c45)c4c(c23)OCCC4)C[C@@H]1CC#N` (single isomer, unassigned) [Compound B96], the IC50 is reported as 140 nM.

Compound `C=CC(=O)N1CCN(c2ncnc3cc(-c4cccc(C)c4F)c4c(c23)OCCC4)C[C@@H]1CC#N` [Compound A31, (S)-2-(1-acryloyl-4-(5-(2-fluoro-3-methylphenyl)-3,4-dihydro-2H-pyrano[2,3-f]quinazolin-10-yl)piperazin-2-yl)acetonitrile] has an IC50 of 137 nM.

Work on `C=CC(=O)N1CCN(c2nc(OC[C@@H]3CCCN3C)nc3cc(-c4cccc5cccc(Cl)c45)c4ccoc4c23)[C@@H](C)C1` [Compound B49, 1-((S)-4-(4-(8-chloronaphthalen-1-yl)-7-(((S)-1-methylpyrrolidin-2-yl)methoxy)furo[2,3-f]quinazolin-9-yl)-3-methylpiperazin-1-yl)prop-2-en-1-one] yielded an IC50 of 128 nM.

Compound `C=C(F)C(=O)N1CCN(c2nc(OCC3C[C@@H](OC)CN3C)nc3cc(-c4cccc5cccc(Cl)c45)c4c(c23)OCCC4)C[C@@H]1CC#N` (single isomer, unassigned) [Compound B94] has an IC50 of 4.63 nM.

`C=C(F)C(=O)N1CCN(c2nc(OC3CCCC3N(C)C)nc3cc(-c4cccc5cccc(Cl)c45)c4c(c23)OCCC4)C[C@@H]1CC#N` (stereo partly drawn) [Compound B50, 2-((2S)-4-(5-(8-chloronaphthalen-1-yl)-8-((2-(dimethylamino)cyclopentyl)oxy)-3,4-dihydro-2H-pyrano[2,3-f]quinazolin-10-yl)-1-(2-fluoroacryloyl)piperazin-2-yl)acetonitrile] showed an IC50 of 289 nM.

With `C=CC(=O)N1CCN(c2nc(OC[C@@H]3C[C@@H](F)CN3C)nc3cc(-c4c(Cl)c(C)cc5[nH]ncc45)c4c(c23)OCCC4)CC1` [Compound B15, 1-(4-(5-(5-chloro-6-methyl-1H-indazol-4-yl)-8-(((2S,4R)-4-fluoro-1-methylpyrrolidin-2-yl)methoxy)-3,4-dihydro-2H-pyrano[2,3-f]quinazolin-10-yl)piperazin-1-yl)prop-2-en-1-one] the IC50 was 107 nM.

Work on `C=CC(=O)N1CC2CN(c3ncnc4cc(-c5c(O)cccc5F)c5c(c34)OC(C)(C)CC5)CC2C1` (centres unmarked) [Compound A6, 1-(5-(5-(2-fluoro-6-hydroxyphenyl)-2,2-dimethyl-3,4-dihydro-2H-pyrano[2,3-f]quinazolin-10-yl)hexahydropyrrolo[3,4-c]pyrrol-2(1H)-yl)prop-2-en-1-one] yielded an IC50 of 3540 nM.

`C=C(F)C(=O)N1CCN(c2nc(N3CC(N(C)C)C3)nc3cc(-c4cccc5cccc(Cl)c45)c4c(c23)OCCC4)C[C@@H]1CC#N` (single isomer, unassigned) [Compound B101] showed an IC50 of 6.53 nM.

`C=CC(=O)N1CCN(c2ncnc3cc(-c4c(C)ccc5[nH]ncc45)c4c(c23)OCC=C4)C[C@@H]1CC#N` [Compound A9, 2-((2S)-1-acryloyl-4-(5-(5-methyl-1H-indazol-4-yl)-2H-pyrano[2,3-f]quinazolin-10-yl)piperazin-2-yl)acetonitrile] showed an IC50 of 218 nM.

`C=C(F)C(=O)N1CCN(c2nc(OC[C@H]3C[C@@H](OC)CN3C)nc3cc(-c4cccc5cccc(Cl)c45)c4c(c23)OCCC4)C[C@@H]1CC#N` (single isomer, unassigned) [Compound B106] was tested, and the IC50 was 9.54 nM.

`C=C(F)C(=O)N1CCN(c2nc(OC[C@@H]3C[C@@H](OC)CN3C)nc3cc(-c4cccc5cccc(Cl)c45)c4ccoc4c23)C[C@@H]1CC#N` [Compound B20, 2-((S)-4-(4-(8-chloronaphthalen-1-yl)-7-(((2S,4R)-4-methoxy-1-methylpyrrolidin-2-yl)methoxy)furo[2,3-f]quinazolin-9-yl)-1-(2-fluoroacryloyl)piperazin-2-yl)acetonitrile] showed an IC50 of 16 nM.

With `C=C(F)C(=O)N1CCN(c2nc(OC[C@@H]3CCCN3C)nc3cc(-c4cccc5c4CCCC5)c4c(c23)OCCC4)C[C@@H]1CC#N` [Compound B81, 2-((S)-1-(2-fluoroacryloyl)-4-(8-(((S)-1-methylpyrrolidin-2-yl)methoxy)-5-(5,6,7,8-tetrahydronaphthalen-1-yl)-3,4-dihydro-2H-pyrano[2,3-f]quinazolin-10-yl)piperazin-2-yl)acetonitrile] the IC50 was 48 nM.

`C=C(F)C(=O)N1CCN(c2nc(OC[C@@H]3C[C@H]4C[C@H]4N3C)nc3cc(-c4cccc5cccc(Cl)c45)c4c(c23)OCCC4)C[C@@H]1CC#N` [Compound B73, 2-((S)-4-(5-(8-chloronaphthalen-1-yl)-8-(((1R,3S,5R)-2-methyl-2-azabicyclo[3.1.0]hexan-3-yl)methoxy)-3,4-dihydro-2H-pyrano[2,3-f]quinazolin-10-yl)-1-(2-fluoroacryloyl)piperazin-2-yl)acetonitrile] was tested, and the IC50 was 50 nM.

In the case of `C=C(F)C(=O)N1CCN(c2nc(OC3CN(C)C3)nc3cc(-c4cccc5cccc(Cl)c45)c4c(c23)OCCC4)C[C@@H]1CC#N` [Compound B64, (S)-2-(4-(5-(8-chloronaphthalen-1-yl)-8-((1-methylazetidin-3-yl)oxy)-3,4-dihydro-2H-pyrano[2,3-f]quinazolin-10-yl)-1-(2-fluoroacryloyl)piperazin-2-yl)acetonitrile], the IC50 is reported as 247 nM.

Work on `C=C(F)C(=O)N1CCN(c2nc(N3CC(COC)(N(C)C)C3)nc3cc(-c4cccc5cccc(Cl)c45)c4c(c23)OCCC4)C[C@@H]1CC#N` [Compound B86, (S)-2-(4-(5-(8-chloronaphthalen-1-yl)-8-(3-(dimethylamino)-3-(methoxymethyl)azetidin-1-yl)-3,4-dihydro-2H-pyrano[2,3-f]quinazolin-10-yl)-1-(2-fluoroacryloyl)piperazin-2-yl)acetonitrile] yielded an IC50 of 19 nM.
